From patent publication US20210053957A1, “HERBICIDAL COMPOUNDS” (SYNGENTA PARTICIPATIONS AG, priority 2018, published 2021)

Experiments:
Experiment in all cases: Post-emergence efficacy, glasshouse spray test
Format in all cases: in vivo
Setaia fabei (SETFA) = details: Setaria faberi, post-emergence, 312 h; Application Rate 500 g/Ha; evaluated after 13 days; read-out: Control of weed species after post-emergence application, SETFA (100=total damage to plant; 0=no damage to plant)
Summary of the method: (§1)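 Pot-grown plants sprayed 14 days after sowing, held in glasshouse at 24/16° C day/night, 14 h light, 65% humidity. Active formulated in acetone plus IF50 as 50 g/l stock, diluted in 0.25% or 1% Empicol ESC70 + 1% ammonium sulphate. Damage scored after 13 days, 0 (none) to 100 (total).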

[1] = system: Digitaria sanguinalis (DIGSA); details: Digitaria sanguinalis, post-emergence, 312 h; Application Rate 500 g/Ha; evaluated after 13 days; read-out: Control of weed species after post-emergence application, DIGSA (100=total damage to plant; 0=no damage to plant)
Summary of the method: as §1

[2] = system: Echinochloa crus-galli (ECHCG); details: Echinochloa crus-galli, post-emergence, 312 h; Application Rate 500 g/Ha; evaluated after 13 days; read-out: Control of weed species after post-emergence application, ECHCG (100=total damage to plant; 0=no damage to plant)
Summary of the method: as §1

Lolium perenne (LOLPE) = details: Lolium perenne, post-emergence, 312 h; Application Rate 500 g/Ha; evaluated after 13 days; read-out: Control of weed species after post-emergence application, LOLPE (100=total damage to plant; 0=no damage to plant)
Summary of the method: as §1

[3] = system: Euphorbia heterophylla (EPHHL); details: Euphorbia heterophylla, post-emergence, 312 h; Application Rate 500 g/Ha; evaluated after 13 days; read-out: Control of weed species after post-emergence application, EPHHL (100=total damage to plant; 0=no damage to plant)
Summary of the method: as §1

[4] = system: Amaranthus palmeri (AMAPA); details: Amaranthus palmeri, post-emergence, 312 h; Application Rate 500 g/Ha; evaluated after 13 days; read-out: Control of weed species after post-emergence application, AMAPA (100=total damage to plant; 0=no damage to plant)
Summary of the method: as §1

[5] = system: Chenopodium album (CHEAL); details: Chenopodium album, post-emergence, 312 h; Application Rate 500 g/Ha; evaluated after 13 days; read-out: Control of weed species after post-emergence application, CHEAL (100=total damage to plant; 0=no damage to plant)
Summary of the method: as §1

Eleusine indica (ELEIN) = details: Eleusine indica, post-emergence, 312 h; Application Rate 500 g/Ha; evaluated after 13 days; read-out: Control of weed species after post-emergence application, ELEIN (100=total damage to plant; 0=no damage to plant)
Summary of the method: as §1

[6] = system: Ipomoea hederacea (IPOHE); details: Ipomoea hederacea, post-emergence, 312 h; Application Rate 500 g/Ha; evaluated after 13 days; read-out: Control of weed species after post-emergence application, IPOHE (100=total damage to plant; 0=no damage to plant)
Summary of the method: as §1

Structure (SMILES) | pest or weed control at 500 g/ha (Setaia fabei (SETFA)) [%] | pest or weed control at 500 g/ha [1] [%] | pest or weed control at 500 g/ha [2] [%] | pest or weed control at 500 g/ha (Lolium perenne (LOLPE)) [%] | pest or weed control at 500 g/ha [3] [%] | pest or weed control at 500 g/ha [4] [%] | pest or weed control at 500 g/ha [5] [%] | pest or weed control at 500 g/ha (Eleusine indica (ELEIN)) [%] | pest or weed control at 500 g/ha [6] [%]
O=C(O)CC[n+]1ccc(-c2nc(C(F)(F)F)co2)cn1 [Compound A56] | 80 | 70 | 90 | 50 | 90 | 100 | 80 | 80 | 30
COC(=O)CC[n+]1ccc(-c2nccs2)cn1 [Compound A112] | 60 | 90 | 50 | 30 | 50 | 50 | 60 | 90 | 20
O=S(=O)([O-])CC[n+]1ccc(-c2ncco2)cn1 [Compound A19] | 60 | 70 | 80 | 90 | 100 | 40 | 100 | 100 | 70
CS(=O)(=O)[N-]C(=O)C[n+]1ccc(-c2ncco2)cn1 [Compound A72] | 60 | 60 | 40 | 40 | 70 | 90 | 70 | 80 | 70
Cn1nncc1-c1cc[n+](CCS(=O)(=O)[O-])nc1 [Compound A49] | 60 | 70 | 60 | 40 | 90 | 100 | 100 | 60 | 70
COC(=O)c1ccccc1C[n+]1ccc(-c2ncco2)cn1 [Compound A95] | 20 | 30 | 10 | 0 | 30 | 10 | 0 | 10 | 10
O=S(=O)([O-])CCC[n+]1ccc(-c2nccs2)cn1 [Compound A116] | 60 | 60 | 60 | 80 | 70 | 100 | 40 | 80 | 20
